Entries after “also recorded” stand apart in the source; their conditions may differ. Where two headings read alike, the source gives them in different places.
Legend:
[1] = test system: Dh44+ cells; experiment: Ex vivo destaining experiment: Dh44 peptide release quantified by αDh44 immunofluorescence; assay type: cell-based, Drosophila melanogaster; settings: for release of the Dh44 peptide (amount of Dh44 peptide left inside Dh44+ cells): brains of 18 h-food deprived flies incubated in AHL + sugar 80 mM for 30′, compared with saline (AHL)
[2] = test system: Dh44+ cells; experiment: Ca2+ imaging (GCaMP3.0) of Dh44+ cell activity in response to sugars, ex vivo fly brains; assay type: cell-based, Drosophila melanogaster; settings: for peak amplitude, oscillation number and frequency of Dh44+ cells activation: non-metabolized sugar treatment; for activation of Dh44+ cells: perfusion of sugar, brains of PDh44 GAL4>UAS-GCaMP3.0 flies, D-glucose 5, 20, 80 mM
[3] = test system: CRH neurons in paraventricular nucleus (PVN); experiment: Whole-cell patch-clamp recordings of glucose sensing response in brain slices; assay type: cell-based, mice; parameters: Input R: unit not given here
Description: Whole-cell patch-clamp recordings from CRH neurons in paraventricular nucleus (PVN) slice preparation and data analysis were performed as previously described (ref).
Briefly, 3 to 5 week old of either male or female mice were anesthetized with isoflurane and transcardially perfused with a modified ice-cold artificial CSF (ACSF) in which NaCl was substituted with an equal molar concentration of sucrose (described below). Then, the mice was decapitated, and the entire brain was removed and then immediately immersed in ice-cold ACSF (220 mM sucrose, 2.5 mM KCl, 5.0 mM MgCl2, 1.0 mM CaCl2, 1.0 mM NaH2PO4, 26 mM NaHCO3, and 10 mM glucose), saturated with 95% O2 and 5% CO2. A brain block containing PVN was mounted on a stage and coronal sections (250 um) were cut with a Leica Vibratome. The sectioned slices were then incubated in oxygenated ACSF at 34° C. for at least 1 hour before recording. The slices were transferred into recording chamber and bathed in oxygenated ACSF. The solution flowing the recording chamber was consists of: (126 mM NaCl, 26 mM NaHCO3, 2.8 mM KCl, 2.5 mM CaCl2, 1.25 mM NaH2PO4, 1.2 mM MgSO4, and 5 mM or 2.5 mM glucose). The pipette solution for whole-cell recording was modified to include an intracellular dye (Alexa Fluor 488): 120 mM K-gluconate, 10 mM KCl, 10 mM HEPES, 5 mM EGTA, 1 mM CaCl2, 1 mM MgCl2, and 2 mM MgATP, 0.03 mM Alexa Fluor 488 dye, pH 7.3. Electrophysiological signals were recorded using an […] amplifier (Molecular Devices), low-pass filtered at 2-5 kHz, and analyzed offline on a PC with pCLAMP programs (Molecular Devices). Recording electrodes had resistances of 4.0-6.0 MΩ when filled with K-gluconate pipette solution.
As the cells to be targeted illuminate red fluorescence from td-tomato, the pipette with positive pressure was attached to cell membrane, which was subsequently giga-sealed by brief negative pressure, before making a tiny hole with more negative pressure to perform whole-cell recordings. Only cells with a whole-cell resistance below 15 MΩ and with a stable resting membrane potential within 1 min were selected and carried out recording. […] At the end of a stable trace, its input resistance was assessed by measuring the voltage deflection to hyperpolarizing rectangular current pulse steps (500 ms of −10 to −50 pA). […] Depending on the cells, it took 1-5 min to change the membrane potential and firing rate. After stabilizing the change in electrophysiological response, input resistance was assessed in the same way as previously described. […] (For most CRH neurons as GE neurons, it took more than 10 min to recover after the response.)

[4] = Table 2, glucose back to 2.5 mM

SMILES: O=C[C@@H](O)[C@H](O)[C@@H](O)[C@@H](O)CO [L-glucose]
- release of the Dh44 peptide (amount of Dh44 peptide left inside Dh44+ cells) [1]: did not result in the release; also recorded: did not induce
- peak amplitude, oscillation number and frequency of Dh44+ cells activation [2]: greatly reduced or nearly abolished
- activation of Dh44+ cells [2]: small increase in activity that lacked oscillations

SMILES: O=C[C@H](O)[C@@H](O)[C@H](O)[C@H](O)CO [D-glucose]
- activation of Dh44+ cells [2]: robust and persistent activation; also recorded: robustly activated
- f ([3]; Table 1 (FIGS. 10A-10B), glucose 5 mM, first): 0.64 HZ
- Input R ([3]; Table 1, glucose 2.5 mM): 1.25
- RMP ([3]; Table 1, glucose 2.5 mM): −65.8874 mV
- f ([3]; Table 1, glucose 2.5 mM): 0.02 HZ
- Input R ([3]; Table 1, glucose 5 mM): 1.40
- Rev P ([3]; Table 1, glucose 5 mM to 2.5 mM): −222.95 mV
- RMP ([3]; Table 1, glucose 5 mM, first): −49.5691 mV
- RMP ([3]; Table 1, glucose back to 5 mM): −57.9124 mV
- f ([3]; Table 1, glucose back to 5 mM): 0.65 HZ
- Rev P ([3]; Table 2): −169 mV
- f ([3]; Table 2 (FIGS. 11A-11B), glucose 2.5 mM, first): 0.64 HZ
- Input R ([3]; Table 2, column headed glucose 2.5 mM): 2.66
- Input R ([3]; Table 2, column headed glucose 5 mM): 2.82
- RMP ([3]; Table 2, glucose 2.5 mM, first): −60.5911 mV
- RMP ([3]; Table 2, glucose 5 mM): −52.4561 mV
- f ([3]; Table 2, glucose 5 mM): 0.02 HZ
- RMP [3, 4]: −59.3806 mV
- f [3, 4]: 0.65 HZ
- time to change the membrane potential and firing rate ([3]; after recording solution changed from 5 mM to 2.5 mM glucose): 1 to 5 min
- electrical activity of the CRH neurons ([3]; glucose changed from 2.5 mM to 5 mM): increased
- electrical activity of the CRH neurons ([3]; glucose changed from 5 mM to 2.5 mM): decreased
- time to recover after the response ([3]; recording solution changed back to 5 mM glucose, most CRH neurons): more than 10 min

SMILES: O=C1NC(=O)C(=O)C(=O)N1 [Alloxan]
- effect on D-glucose-induced Dh44 neuropeptide release ([1]; agent together with D-glucose, ex vivo): did not result in the release; also recorded: reduction
- oscillations of Dh44+ cells ([2]; D-glucose + Alloxan perfusion): almost complete disappearance
- peak amplitude of activation of Dh44+ cells ([2]; D-glucose + Alloxan perfusion): dramatic decrease
- effect on D-glucose-mediated activity (Ca++ influx) of Dh44+ cells ([2]; agent added to the D-glucose solution, Alloxan 4 μM): greatly suppressed

SMILES: NC1=N[C@H](O)[C@H]2[C@H]3O[C@]4(O)O[C@@H]([C@@H](O)[C@@]2(N1)[C@@H]4O)[C@]3(O)CO [TTX, Tetrodotoxin]
- effect on D-glucose-induced Dh44 neuropeptide release [1]: did not affect
- effect on D-glucose-mediated activity (Ca++ influx) of Dh44+ cells [2]: small but non-significant effect; also recorded: small but nonsignificant effect

SMILES: OC[C@H]1O[C@H](O[C@H]2O[C@H](CO)[C@@H](O)[C@H](O)[C@H]2O)[C@H](O)[C@@H](O)[C@@H]1O [trehalose]
- activation of Dh44+ cells [2]: robust and persistent activation; also recorded: robustly activated

SMILES: O=C(CO)[C@@H](O)[C@H](O)[C@H](O)CO [D-fructose]
- activation of Dh44+ cells [2]: robustly activated
- activation of Dh44+ cells ([2]; listed as fructose): robust and persistent activation

SMILES: O=CC[C@@H](O)[C@H](O)[C@H](O)CO [2DG, 2-deoxy-D-glucose]
- release of the Dh44 peptide (amount of Dh44 peptide left inside Dh44+ cells) [1]: did not result in the release
- release of the Dh44 peptide (amount of Dh44 peptide left inside Dh44+ cells) ([1]; listed as D-2′-deoxy-glucose): did not induce
- peak amplitude, oscillation number and frequency of Dh44+ cells activation [2]: greatly reduced or nearly abolished
- activation of Dh44+ cells [2]: small increase in activity that lacked oscillations

From patent US20150231276A1, “ROLE OF DH44 AND HOMOLOGS IN CALORIE SENSING” (New York University, priority 2014, published 2015)
